Source: EPA's ToxValDB 9.5 (doi:10.2903/j.efsa.2009.192r)
Values after ≈ are worked out from the molar mass of the structure shown.

Experiments:
[1] = test system: Rattus norvegicus
[2] = test system: Oncorhynchus mykiss
[3] = test system: Tagia sp.
[4] = test system: Anas platyrhynchos; settings: for LD50: oral, mortality
[5] = test system: Colinus virginianus; settings: acute, oral, mortality
[6] = test system: Folsomia candida; settings: chronic/long-term; duration: 28 days
[7] = test system: Daphnia magna; settings: chronic/long-term; duration: 21 days; reproduction
[8] = test system: Apis mellifera; settings: acute; duration: 48 hours; dermal; mortality
[9] = test system: Canidae; settings: oral, Dog Other, clinical signs

CCc1nn(C)c(C(=O)NCc2ccc(C(C)(C)C)cc2)c1Cl [Tebufenpyrad]
LD50 ([1]; acute, oral, M/F, Fischer 344, mortality): 320 mg/kg-day
NOEL ([1]; chronic, body weight): 8.4 mg/kg-day
NOAEL ([1]; chronic, duration: 2 years, oral, diet, organ weight): 0.8 mg/kg-day
NOAEL ([1]; reproduction developmental, reproduction): 15.3 mg/kg-day
NOAEL ([1]; subchronic, duration: 90 days, oral, organ weight): 0.7 mg/kg-day
LC50 ([2]; acute, duration: 96 hours, mortality): 0.03 µg/mL (≈ 0.0899 µM)
NOEC ([2]; chronic/long-term, duration: 94 days): 0.00245 mg/L
LC50 ([3]; acute, duration: 14 days, mortality): 41 mg/kg
NOEC ([3]; chronic/long-term): 0.66 mg/kg
LD50 ([4]; acute, unspecified): > 2000 mg/kg-day
NOEL ([4]; reproductive): 6.6 mg/kg-day
LD50 ([4]; short-term, feed): > 75 mg/kg-day
LD50 ([5]; diet): > 439 mg/kg-day
LD50 [5]: > 2000 mg/kg-day
NOEC [6]: 9.38 g/ha
NOEC [7]: 0.0024 mg/L
LD50 [8]: > 6.7 µg/piece
NOAEL ([9]; chronic, duration: 1 years): 2 mg/kg-day
NOAEL ([9]; subchronic, duration: 90 days): 2 mg/kg-day
